Assay results reported in patent US11534114B2, “18F labeled amino acids, derivatives thereof and method of making same” (SIMON FRASER UNIVERSITY, priority 2016, dated 2022).

Test system: U-87 tumor
Assay: Dynamic PET/CT time-activity curves of accumulation in selected organs
Format: in vivo, mice
Details: time-activity curves (FIG. 41)

- course of activity in U-87 tumor and pancreas after the peak (after peak accumulation): slow progressive efflux
- time of peak accumulation in the U-87 tumor and pancreas (intravenous injection, mice bearing U-87 xenograft, 60 min dynamic scan): < 10 min
SMILES: CC(C)([18F])CC[C@H](N)C(=O)O [5-[^18F]FHL, 5-[^18F]fluorohomoleucine]
